Experimental data from patent publication EP4772513A1, “PI3K-ALPHA INHIBITOR AND USE THEREOF” (TYK Medicines (Zhengzhou), Inc., priority 2023, dated 2025).

Experiments:
[1] = tested on: Human breast cancer cells SK-BR-3 (WT); assay: Cell proliferation inhibition assay (CTG), SK-BR-3 (WT); type: cell-based; settings: Homo sapiens, 72 h, SK-BR-3 (WT) cells, 3 days incubation, CTG readout
Description: (§1) Cell Proliferation Inhibition Assay
(§2) 1. Experimental Materials
(§3) II. Experimental Protocol
(§4) • a) Cell suspension was prepared; • b) The medium was removed from the culture flask; • c) The cells were rinsed once with PBS; • d) Trypsin was added for digestion, and the cells were centrifuged and collected; • e) The cells were resuspended in medium, counted and adjusted to an appropriate concentration; • f) 100 µL of cell suspension was added to each well of a 96-well plate. One plate was used for each cell line, which was incubated overnight in a 37 °C, 5% CO2 incubator.
(§5) 2. Treatment of Compounds
(§6) • a) Serial dilutions of the test compounds were prepared: The compound was prepared as a 10 mM stock solution. 18 µL of the stock solution was dissolved in 982 µL of the culture medium containing DMSO, followed by 4-fold serial dilutions in culture medium containing 0.5% DMSO to give 9 concentrations. The concentrations of the diluted compound were as follows: 180000 nM, 45000 nM, 11250 nM, 2812.5 nM, 703.13 nM, 175.78 nM, 43.95 nM, 10.99 nM, and 2.75 nM. • b) After thorough mixing, 20 µL of each compound solution was added to the cell plate containing 100 µL of cells per well. Each concentration was tested in triplicate. Final concentrations of the compound were as follows: 30000 nM, 7500 nM, 1875 nM, 468.75 nM, 117.188 nM, 29.30 nM, 7.32 nM, 1.83 nM, and 0.46 nM. • c) The cells were transferred into the incubator and incubated for 3 days.
(§7) The cell plate was removed, 25 µL of CTG reagent was added to each well of the 96-well plate, the mixture was shook on a plate shaker at room temperature for 10 minutes, and the plate was read.
(§8) The cell survival rate was calculated using the following formula (% Cell Survival): % Cell Survival = 100% × (OD_Sample−OD_LCave)/(OD_HC−OD_LCave) [formula] • OD_HC: Reading of the 0.1‰ DMSO control group • OD_Sample: Reading of cells treated with compound • OD_LCave: Reading of blank medium
(§9) Analyzed by Prism: Dose-response-Inhibition - Log (inhibitor) vs response (three parameters for the best fit).

[2] = tested on: Human breast cancer cells T47D (H1047R); assay: Cell proliferation inhibition assay (CTG), T47D (H1047R); type: cell-based; settings: Homo sapiens, 72 h, 3 days incubation, CTG readout
Description: as §1, §2, §3, §4, §5, §6, §7, §8, §9

| SMILES | IC50 [1] [nM] | IC50 [2] [nM] |
| --- | --- | --- |
| Cc1cc([C@@H](C)Nc2ccccc2C(=O)O)c2oc3c(c(=O)c2c1)CCN(S(=O)(=O)N1CCC(F)(F)CC1)C3 [Compound C153] | > 5000 | ≤ 500 |
| Cc1cc([C@@H](C)Nc2ccccc2C(=O)O)c2oc3c(c(=O)c2c1)CCN(S(=O)(=O)N1C[C@@H](C)O[C@H](C)C1)C3 [Compound C154] | > 5000 | ≤ 500 |
| C[C@@H]1CN(S(=O)(=O)N2CCc3c(oc4c([C@@H](C)Nc5ccccc5C(=O)O)cc(F)cc4c3=O)C2)C[C@@H](C)O1 [Compound C155] | > 5000 | ≤ 500 |
| Cc1cc([C@@H](C)Nc2ccccc2C(=O)O)c2oc3c(c(=O)c2c1)CCN(S(=O)(=O)c1c(C)nnn1C)C3 [Compound C156] | > 5000 | ≤ 500 |
| Cc1nnn(C)c1S(=O)(=O)N1CCc2c(oc3c([C@@H](C)Nc4ccccc4C(=O)O)cc(F)cc3c2=O)C1 [Compound C157] | > 5000 | 500 to 2000 |
| Cc1cc([C@@H](C)Nc2ccccc2C(=O)O)c2oc3c(c(=O)c2c1)CCN(S(=O)(=O)c1c(C)cnn1C)C3 [Compound C158] | > 5000 | ≤ 500 |
| Cc1cnn(C)c1S(=O)(=O)N1CCc2c(oc3c([C@@H](C)Nc4ccccc4C(=O)O)cc(F)cc3c2=O)C1 [Compound C159] | > 5000 | ≤ 500 |
| Cc1nsc(C)c1S(=O)(=O)N1CCc2c(oc3c([C@@H](C)Nc4ccccc4C(=O)O)cc(F)cc3c2=O)C1 [Compound C160] | > 5000 | ≤ 500 |
| Cc1cc([C@@H](C)Nc2ccccc2C(=O)O)c2oc3c(c(=O)c2c1)CCN(S(=O)(=O)c1ccccc1F)C3 [Compound C162] | > 5000 | ≤ 500 |
| CCOC(=O)c1ccccc1N[C@H](C)c1cc(C)cc2c(=O)c3c(oc12)CN(S(=O)(=O)N1CCOCC1)CC3 [Compound C165] | > 5000 | 500 to 2000 |
| Cc1cc([C@@H](C)Nc2ccccc2C(=O)O)c2oc3c(c(=O)c2c1)CCN(S(C)(=O)=O)C3 [Compound C168] | > 5000 | 500 to 2000 |
| Cc1cc([C@@H](C)Nc2ccccc2C(=O)O)c2oc3c(c(=O)c2c1)CCN(C(C)C)C3 [Compound C171] | > 5000 | 500 to 2000 |
| Cc1cc([C@@H](C)Nc2ccccc2C(=O)O)c2oc3c(c(=O)c2c1)CCN(c1ccccn1)C3 [Compound C172] | > 5000 | ≤ 500 |
| Cc1cc([C@@H](C)Nc2ccccc2C(=O)O)c2oc3c(c(=O)c2c1)CCN(C1CC2CCC1C2)C3 (some centres unmarked) [Compound C173] | > 5000 | 500 to 2000 |
| Cc1cc([C@@H](C)Nc2ccccc2C(=O)O)c2oc3c(c(=O)c2c1)CCN(c1ncccn1)C3 [Compound C175] | > 5000 | ≤ 500 |
| Cc1cc([C@@H](C)Nc2ccccc2C(=O)O)c2oc3c(c(=O)c2c1)CCN(Cc1ccccc1)C3 [Compound C176] | > 5000 | ≤ 500 |
| [2H]C([2H])([2H])n1ncc(C)c1S(=O)(=O)N1CCc2c(oc3c([C@@H](C)Nc4ccccc4C(=O)O)cc(C)cc3c2=O)C1 [Compound C177] | > 5000 | ≤ 500 |
| CC[C@H](C)N1CCc2c(oc3c([C@@H](C)Nc4ccccc4C(=O)O)cc(C)cc3c2=O)C1 [Compound C178] | > 5000 | ≤ 500 |
| CC[C@@H](C)N1CCc2c(oc3c([C@@H](C)Nc4ccccc4C(=O)O)cc(C)cc3c2=O)C1 [Compound C179] | > 5000 | ≤ 500 |
| Cc1cc([C@@H](C)Nc2ccccc2C(=O)O)c2oc3c(c(=O)c2c1)CCN(c1ccccc1)C3 [Compound C180] | > 5000 | ≤ 500 |
| Cc1cc([C@@H](C)Nc2ccccc2C(=O)O)c2oc3c(c(=O)c2c1)CCN(S(=O)(=O)Cc1ccccc1)C3 [Compound C181] | > 5000 | ≤ 500 |
| Cc1cnn(C)c1S(=O)(=O)N1CCc2c(nc3c([C@@H](C)Nc4ccccc4C(=O)O)cc(F)cn3c2=O)C1 [Compound C182] | > 5000 | ≤ 500 |
| Cc1cc([C@@H](C)Nc2ccccc2C(=O)O)c2nc3c(c(=O)n2c1)CCN(S(=O)(=O)c1c(C)cnn1C)C3 [Compound C189] | > 5000 | ≤ 500 |
| C[C@@H](Nc1ccccc1C(=O)O)c1cc(F)cn2c(=O)c3c(nc12)CN(Cc1ccccc1)CC3 [Compound C190] | > 5000 | 500 to 2000 |
| Cc1cc([C@@H](C)Nc2ccccc2C(=O)O)c2nc3c(c(=O)n2c1)CCN(S(=O)(=O)c1ccccc1)C3 [Compound C191] | > 5000 | ≤ 500 |
| C[C@@H](Nc1ccccc1C(=O)O)c1cc(F)cn2c(=O)c3c(nc12)CN(S(=O)(=O)c1ccccc1)CC3 [Compound C192] | > 5000 | ≤ 500 |
| CC(C)S(=O)(=O)N1CCc2c(nc3c([C@@H](C)Nc4ccccc4C(=O)O)cc(F)cn3c2=O)C1 [Compound C193] | > 5000 | ≤ 500 |
| C[C@@H](Nc1ccccc1C(=O)O)c1cc(F)cn2c(=O)c3c(nc12)CN(c1ccccc1)CC3 [Compound C208] | > 5000 | 500 to 2000 |
